Patent US9347942B2, “Ultrasensitive cell based sensors and uses thereof” (CANVAX BIOTECH SL, priority 2010, dated 2016)

Assays:
Assay type in all cases: cell-based
CHRM2 [1] = target: T1, CHRM2 (Homo sapiens, UniProt P08172); experiment: Exocytosis time optimisation, granzyme B FRET readout (Example 12); conditions: agonist 10 uM
T1 construct: the entire human GPCR; mouse immunoglobulin kappa signal peptide (N); expressed in transfected cells
T1 sequence (P08172 2-466): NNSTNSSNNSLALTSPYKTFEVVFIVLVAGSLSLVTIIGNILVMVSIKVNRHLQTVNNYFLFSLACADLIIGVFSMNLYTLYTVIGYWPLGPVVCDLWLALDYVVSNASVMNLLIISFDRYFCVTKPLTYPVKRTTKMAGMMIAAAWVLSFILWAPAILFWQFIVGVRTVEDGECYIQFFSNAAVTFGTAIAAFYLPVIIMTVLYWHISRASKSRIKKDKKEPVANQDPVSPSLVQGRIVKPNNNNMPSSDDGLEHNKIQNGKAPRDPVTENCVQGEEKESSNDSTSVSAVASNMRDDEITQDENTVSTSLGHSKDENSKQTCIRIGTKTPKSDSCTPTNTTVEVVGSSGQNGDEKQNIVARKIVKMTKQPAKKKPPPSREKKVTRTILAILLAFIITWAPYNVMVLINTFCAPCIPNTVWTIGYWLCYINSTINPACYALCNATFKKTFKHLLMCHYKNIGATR
Description: An experiment was designed to optimize assay conditions such as: exocytosis time, number of steps needed for assay and uses of cells in suspension. Cells developed in example #9 expressing both a GPCR and human granzyme B were used in this example for optimization of exocytosis time. GPCRs included were CHRM2 (an alpha-i coupled GPCR) and bradykinin type B1 receptor (an alpha-q coupled GPCR). Carbachol and kallinin from Sigma-Aldrich (USA) were used as ligands for CHRM2 and bradykinin type B1 receptor, respectively and used at 10 uM final concentration in HBSS buffer. Cells were seeded the night before experiment at 20.000 cells per well of a 96-well microplate in 100 uL of complete cell culture medium. Next day cells were washed with HBSS buffer and incubated with the ligand (agonist) at 10 uM of each GPCR in 30 uL of HBSS buffer at 37 Celsius degrees for 5, 15, 30 or 60 minutes and after centrifugation at 400 g for 5 minutes supernatants were analysed for human granzyme B activity using FAM-[…]-TAMRA at 1 uM final concentration as the human granzyme B substrate. Released FAM was measured by excitation at 485 nm and emission at 535 nm in a BMG Labtech microplate fluorimeter in 96 well microplates. Microplates were incubated at 37 Celsius degrees on the reader and were kinetically read at 0, 15, 30, 45 and 60 minutes. Control wells with substrate only in HBSS buffer were included to subtract autofluorescence of substrates to both cells treated with ligands and to cells treated with HBSS buffer only. […] The signal to background is lower at longer exocytosis times due to the higher increase in basal release than the increase in specific signal after the first 5 to 15 minutes. Thus, any exocytosis time from probably less than 5 minutes to at least 60 minutes may be used for the methods of the present invention but longer exocytosis times produce a sensor with a lower signal to background, exocytosis is nearly complete at 5 minutes and signal to background is good for a robust sensor.

hIL8 receptor (hIL8RA) = target: T2, hIL8 receptor (hIL8RA) (Homo sapiens, UniProt P25024); experiment: Multiplex assay, Sensor A channel (hIL8RA and human granzyme A) (Example 14); conditions: Condition 4: Sensor A 12500 + Sensor B 5000 cells, carbachol 10 uM, no IL8, granzyme A substrate 1 uM
T2 construct: the entire human GPCR; mouse immunoglobulin kappa signal peptide (N); expressed in transfected cells
T2 sequence (P25024 3-350 limits assumed): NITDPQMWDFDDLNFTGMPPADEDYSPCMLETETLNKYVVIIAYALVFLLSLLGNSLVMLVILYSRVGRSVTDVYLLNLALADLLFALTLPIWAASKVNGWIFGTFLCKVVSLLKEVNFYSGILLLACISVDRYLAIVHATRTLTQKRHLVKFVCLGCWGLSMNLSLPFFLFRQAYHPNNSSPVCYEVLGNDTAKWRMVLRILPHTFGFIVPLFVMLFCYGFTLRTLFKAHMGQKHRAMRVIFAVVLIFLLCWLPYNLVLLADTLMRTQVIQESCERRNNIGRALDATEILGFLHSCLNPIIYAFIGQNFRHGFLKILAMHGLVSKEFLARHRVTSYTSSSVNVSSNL
Description: (§1) The principle of multiplex reactions is illustrated in FIG. 5. RBL2H3 cells were stably transfected with a pair of a GPCR as exocytosis modulator and a granzyme as a granule stored reporter as described in example 9. Combinations included were: hIL8 receptor (hIL8RA) and human granzyme A (Sensor A) and CHRM2 and granzyme B expressing cells of example #12 (Sensor B). Human IL8 was used as agonist of hll_8R while carbachol was used as CHRM2 agonist. […] As both substrates uses the same pair of fluorophore (FAM) and quencher (TAMRA) only one substrate could be added to reaction vessel for specific detection at 535 nm after excitation at 485 nm. […] Sensors, agonists and substrates were mixed in a total volume of 20 uL of HBSS in a black walled 384 well microplate and the microplate was incubated at 37 Celsius degrees in a BMG-Labtech microplate fluorimeter and read at 0, 15, 30, 45 and 60 minutes.

CHRM2 [2] = target: T1, CHRM2; experiment: Multiplex assay, Sensor B channel (CHRM2 and granzyme B) (Example 14); conditions: granzyme B substrate 1 uM
Description: as §1

C[N+](C)(C)CCOC(N)=O [Carbachol, carbachol] was tested, and the “exocytosis, % of maximal” value (CHRM2 [1]; 5 minutes, 20.000 cells) was greater than 90%, the “signal to background (S/B)” value (CHRM2 [1]; medium taken at 5 to 15 minutes) was 20-22 and the “signal to background (S/B)” value (CHRM2 [1]; medium taken at 30 minutes) was 15-17. The “signal to background (S/B)” value (CHRM2 [1]; medium taken at 60 minutes) was 8-10, the “Signal to background at 30 min” value (hIL8 receptor (hIL8RA)) was 0.78 and the “Signal to background at 30 min” value (CHRM2 [2]; Condition 7: 5000 cells Sensor B, carbachol 10 uM) was 20. For the same compound, the “Signal to background at 30 min” value (CHRM2 [2]; Condition 10: Sensor A 12500 + Sensor B 5000 cells, IL8 10 uM + carbachol 10 uM) was 20.
